Values after ≈ are worked out from the molar mass of the structure shown.

The solubility is how much of the substance goes into solution per volume.

This data set is described as follows: Solubility of p-TSA in various solvents. Type of data set: physicochemical. The settings on record: thermodynamic from solid.

`Cc1ccc(S(N)(=O)=O)cc1` [p-TSA, p-Toluenesulfonamide]: the solubility reads like this: (aqueous with cosolvent or surfactant or cyclodextrin, in 20% 7-sulfobutyl-ether-β-cyclodextrin (SBEβCD), n = 3) 17.6 mg/mL (≈ 103 mM); (organic solvent or mixture, in Absolute ethanol, n = 3) 108 mg/mL (≈ 628 mM); (organic solvent or mixture, in Dimethyl sulfoxide (DMSO), n = 3) 786 mg/mL (≈ 4590 mM); (organic solvent or mixture, in Glycerol, n = 3) 28.4 mg/mL (≈ 166 mM); (organic solvent or mixture, in Glycofurol 75, n = 3) 443 mg/mL (≈ 2590 mM); (organic solvent or mixture, in Polyethylene glycol 400 (PEG-400), n = 3) 467 mg/mL (≈ 2720 mM). Further, the solubility (organic solvent or mixture, in Propylene glycol (PG), n = 3) stood at 118 mg/mL (≈ 688 mM).

These data come from patent US10548862B2, “Topical formulation and method for preventing or treating acne” (Gongwin Biopharm Holdings Co., Ltd., priority 2017, dated 2020).
